We go through 1 molecule from US11471474B2, “Pharmaceutical or cosmetic composition for preventing or treating hair loss or promoting hair growth” (priority 2018, dated 2022).

In the data set the test system is human hair dermal papilla cells (HHDPC). Put plainly: MTT cytotoxicity test of cADPR in human hair dermal papilla cells. The conditions noted are these: cADPR in the concentration range according to the invention (0.01 to 2 ppm tested), 48 hours. The format is cell-based. As to the method:
To confirm cytotoxicity of cADPR in human hair dermal papilla cells (HHDPC), MTT assay which is a representative method for measuring cytotoxicity and determines cytotoxicity by measuring mitochondrial reducing power by dehydrogenase action was conducted.
Human hair dermal papilla cells were cultured in an HDP kit medium (Human hair dermal papilla cell media kit) at 37° C. in a 5% CO2 incubator (manufactured by Thermo Fisher Scientific, USA).
The cultured cells were dispensed into a 24-well plate at a concentration of 3×10^4 cells/well. After 18 hours, the cADPR mixture solutions according to Preparation Examples 1-1 to 1-6 (0.01, 0.05, 0.1, 0.5, 1 and 2 ppm, respectively) were added to each well. Then, the cells were cultured in the 5% CO2 incubator at 37° C. for 48 hours. After 48 hours of the incubation, each well was washed once with PBS (phosphate buffered saline) solution, and added with 50 μl of 5 mg/mL MTT reagent (Sigma, USA) and 450 μl of fresh medium. The wells were incubated for 2.5 hours and then supernatants were removed.

Turning to `N=c1c2ncn3c2ncn1[C@@H]1O[C@H](COP(=O)(O)OP(=O)(O)OC[C@H]2O[C@@H]3[C@H](O)[C@@H]2O)[C@@H](O)[C@H]1O` [cADPR, Cyclic ADP Ribose], the cytotoxicity result was “no cytotoxicity was observed”.
